# Values quoted from earlier work in patent US8410113B2, “(2R)-1-(3-chloro-2-pyrazinyl)-2-methylpiperazine and salts thereof” (Biovitrum AB (publ), priority 2002, dated 2013).
# What was measured:
# 5-HT2c receptor [1] = conditions: mice expressing the mutated inactive form of the 5-HT2c receptor; cited from earlier work
# 5-HT2c receptor [2] = biological target: T1, 5-HT2c receptor (Mus musculus, UniProt P34968); conditions: mice that express the normal 5-HT2c receptor; cited from earlier work
# T1 construct: mice that express the normal 5-HT2c receptor; host or cells: mice (whole animal)
# T1 sequence (P34968 33-459): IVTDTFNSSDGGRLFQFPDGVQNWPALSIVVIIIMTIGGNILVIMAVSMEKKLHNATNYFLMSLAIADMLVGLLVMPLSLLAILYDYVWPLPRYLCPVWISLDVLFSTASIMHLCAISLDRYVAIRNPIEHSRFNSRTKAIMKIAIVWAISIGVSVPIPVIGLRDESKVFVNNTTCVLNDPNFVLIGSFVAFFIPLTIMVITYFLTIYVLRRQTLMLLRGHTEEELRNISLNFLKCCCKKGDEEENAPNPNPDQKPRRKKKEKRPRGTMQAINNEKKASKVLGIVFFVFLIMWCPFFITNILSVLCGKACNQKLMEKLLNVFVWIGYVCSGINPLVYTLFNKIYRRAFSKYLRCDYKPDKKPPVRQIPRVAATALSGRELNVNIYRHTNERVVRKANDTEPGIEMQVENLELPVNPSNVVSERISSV
# [3] = obese subjects, after 2 weeks of treatment; cited from earlier work
structure (smiles),measurement,setting,value
"Clc1cccc(N2CCNCC2)c1 [mCPP, m-chlorophenylpiperazine]",weight loss,5-HT2c receptor [1],lacks activity
same,weight loss,5-HT2c receptor [2],causes weight loss
same,body weight,[3],slight but sustained reduction in body weight
